Publication PMC12608245, “Integrated Molecular and Functional Analysis of Hop Ethanolic Extract in Caco-2 Cells: Insights into Inflammation, Barrier Function, and Transport” (International Journal of Molecular Sciences, 2025)

Key:
IL-6 [1] = assay: IL-6 production in IL-1β-stimulated Caco-2 cells (ELISA); type: cell-based; conditions: IL-1β 10 ng/mL, 24 h
Experimental: (§1) Caco-2 cells were seeded in 48-well plates and cultured as described above. […] Prior to application, HLE was dissolved in DMSO and sterilely transferred into fresh serum-free medium. To remove high-molecular-weight pyrogens, the extract was subjected to a two-step ultrafiltration using a Microsep™ Advance Centrifugal Device with 30 kDa and 100 kDa cut-offs (Pall Corporation, Port Washington, NY, USA), as described in Kruk et al.. After ultrafiltration, 10% FBS was added to the medium. Following a one-hour pre-incubation, IL-1β was added to each well to achieve a final concentration of 10 ng/mL. After 24 h of incubation, the supernatants were collected, and IL-6 and IL-8 concentrations were determined using the sandwich ELISA method (BD Biosciences Pharmingen).

Caco-2 monolayers [2] = assay: Transport and metabolism of HLE constituents through Caco-2 monolayers; type: in vitro ADME; conditions: apical to basolateral, 24 h incubation of HLE with Caco-2, based on the peak area ratio
Experimental: Caco-2 cells were seeded and cultivated as described for the TEER measurements. After 21 days of cultivation, HLE solutions at concentrations of 12.5–100 µg/mL (prepared as for the cell viability assay) were added to the apical compartment. As a non-treated control, medium containing 0.5% DMSO was used. Supernatants from both the apical and basolateral compartments were collected at 0 h and 24 h for chromatographic analysis.
Analyses were performed using a Vanquish UHPLC system coupled with an Exploris 120 Orbitrap mass spectrometer (Thermo Scientific, Bremen, Germany) equipped with a Kinetex XB-C18 column (150 × 2.1 mm, 1.7 µm). Mobile phases consisted of (A) water and (B) acetonitrile:water (4:1, v/v), both containing 0.1% HCOOH and 5 mM NH4HCOO. […] Electrospray settings: spray voltage 3.5 kV (+)/2 kV (−); sheath/aux/sweep gas 48/11/2 Arb; ion transfer tube 320 °C; vaporizer 280 °C. Data were acquired in full-scan mode (resolution 120,000, polarity switching). MS2 spectra were obtained using stepped NCE 30/50% (resolution 15,000) and ddMS2 settings of four fragmentation scans per full scan, single-charge filter, isotope and dynamic exclusion enabled. Experimental samples were analyzed with and without fragmentation exclusion lists generated from control samples to enhance MS2 coverage. Data processing was performed in Compound Discoverer 3.4 (Thermo Scientific, Austin, TX, USA). Signals corresponding to hop extract constituents were identified based on comparison of donor compartment solution and method blank. Similarity analysis and molecular networking (mzMine 4.6) were based on shared fragments or constant m/z shifts.

IL-8 [3] = assay: IL-8 production in IL-1β-stimulated Caco-2 cells (ELISA); type: cell-based; conditions: IL-1β-stimulated control, IL-1β 10 ng/mL, 24 h
Experimental: as §1

Caco-2 monolayers [4] = assay: TEER measurement of Caco-2 monolayer; type: cell-based; conditions: for TEER: IL-1β control
Experimental: Caco-2 cells were cultivated in 6-well plates on a Transwell transparent insert (Greiner Bio-One, Kremsmünster, Austria) with density of 6 × 10^5 cells/insert for 21 days. (37 °C, 5% CO2) Medium that was used contained the earlier mentioned ingredients. Three mL of medium was added to the apical compartment, and 3.5 mL was added to the basolateral compartment. The medium was replaced three times per week. CellZscope systems for 24-well and 6-well formats (nanoAnalytics GmbH, Münster, Germany) were used to analyze the TEER. Solutions were made as described in Section 4.5 with concentrations 12.5–100 µg/mL. As non-treated control, medium containing 0.5% DMSO was used. The medium in the apical compartment was replaced with the HLE solutions or control. After a 24-h incubation period 25 ng/mL of IL-1β was added in basolateral compartment.

IL-6 [5] = assay: Caco-2 inflammatory model selection, IL-6 production (ELISA); type: cell-based; conditions: IL-1β 25 and 12.5 ng/mL, 24 h
Experimental: (§2) Cells were seeded in 48-well plates and cultured as described above. After reaching 100% confluence, they were stimulated with different concentrations and combinations of the following factors: TNF-α (1, 12.5, 25 ng/mL), LPS from E. coli (1, 5, 10 µg/mL), IFN-γ (1, 10, 50 ng/mL), a mixture of IFN-γ and TNF-α (1 + 1, 10 + 10, 50 + 50 ng/mL), and IL-1β (0.01, 0.02, 0.04, 0.08, 1, 12.5, 25 ng/mL). […] After 24 h of incubation, the supernatants were collected, and IL-6 and IL-8 concentrations were determined using the sandwich ELISA method (BD Biosciences Pharmingen, San Diego, CA, USA).

IL-8 [6] = assay: Caco-2 inflammatory model selection, IL-8 production (ELISA); type: cell-based; conditions: 24 h
Experimental: as §2

Caco-2 monolayers [7] = tested on: Caco-2 monolayers; set-up: method as in Van de Walle et al. [20]; conditions: IL-1β 25 ng/mL, Caco-2 cell monolayers; ref Van de Walle et al. [20]; cited from earlier work

| Compound | Transport Efficiency (%) (Caco-2 monolayers [2]) | other results |
| --- | --- | --- |
| C[C@@H]1C[C@H]2[C@@H]3CCC4=CC(=O)C=C[C@]4(C)[C@@]3(F)[C@@H](O)C[C@]2(C)[C@@]1(O)C(=O)CO [Dexamethasone, reference compound] | – | IL-6 level (IL-6 [1]; dexamethasone 20 µM (positive control), compared with the IL-1β-stimulated control): 3.7 ± 0.3% |
| CC(C)=CCC(=O)[C@@]1(O)C(=O)C(C(=O)C(C)C)=C(O)[C@@]1(O)CC=C(C)C [Peak M10, cohumulinone] | 9% | – |
| COc1cc(O)c(CC=C(C)C)c(O)c1C(=O)/C=C/c1ccc(O)cc1 [Peak M13, xanthohumol] | 3.5% | – |
| CC(C)=CCC1=C(O)C(O)(CC=C(C)C)C(=O)C(C(=O)C(C)C)=C1O (stereo not drawn) [Peak M14, cohumulone] | 9.5% | – |
| CC(C)=CCC1=C(O)C(O)(CC=C(C)C)C(=O)C(C(=O)CCC(C)C)=C1O (stereo not drawn) [Peak M17, prehumulone] | 4.3% | – |
| IL-1β: pro-inflammatory cytokine used as inflammatory trigger | – | IL-6 level (IL-6 [1]; IL-1β-stimulated control): 103.3 ± 1.7%; IL-8 level (IL-8 [3]): 100.8 ± 5.5%; TEER (Caco-2 monolayers [4]; 33 h): 83.97 ± 4.20%; TEER (Caco-2 monolayers [4]; 42 h): 84.25 ± 1.33%; TEER value decrease (Caco-2 monolayers [4]; after 24 h of exposure to 25 ng/mL IL-1β): 16 ± 1%; IL-6 secretion versus non-treated control (IL-6 [5]): increase IL-6 at concentrations of 25 and 12.5 ng/mL significantly; IL-8 secretion versus non-treated control (IL-8 [6]; IL-1β 25, 12.5, 1, 0.08 and 0.04 ng/mL): significantly increased IL-8 secretion; TEER reduction (Caco-2 monolayers [7]): approximately 20 ± 4% |
| TNF-α | – | IL-8 secretion versus non-treated control (IL-8 [6]; TNF-α 25 and 12.5 ng/mL): significantly increased IL-8 secretion |
| hulupone/adhulupone [Peak M4] | 3.7% | – |
| hydroxy-n-humulinone/hydroxyadhumolinone [Peak M11] | 17.4% | – |
| n-humulinone/adhumulinone isomer 1 [Peak M7] | 6.9% | – |
| n-humulinone/adhumulinone isomer 2 [Peak M12] | 11.7% | – |
| n-humulone/adhumulone isomer 1 [Peak M15] | 8% | – |
| n-humulone/adhumulone isomer 2 [Peak M16] | 9.6% | – |
| tetrahydro-iso-α-acid [Peak M6] | 2% | – |
